Literature values, collected in patent US10463673B2, “Nanoparticulate meloxicam formulations” (Recro Pharma, Inc., priority 2003, dated 2019).
Where two headings read alike, the source gives them in different places.

What was measured:
[1] = oral; for Cmax, mean (% CV) / tmax, mean (% CV): 15 mg capsules
[2] = Single dose, hepatic insufficiency (Fasted)
[3] = Single dose, renal failure (Fasted)
[4] = Steady state, elderly females (Fed)
[5] = Steady state, elderly males (Fed)

Cmax, mean (% CV) [1, 2]: 0.84 (29) μg/mL
tmax, mean (% CV) [1, 2]: 10 (87) h
Cmax, mean (% CV) [1, 3]: 0.59 (36) μg/mL
tmax, mean (% CV) [1, 3]: 4 (65) h
Cmax, mean (% CV) [1, 4]: 3.2 (24) μg/mL
tmax, mean (% CV) [1, 4]: 6 (27) h
Cmax, mean (% CV) [1, 5]: 2.3 (59) μg/mL
tmax, mean (% CV) [1, 5]: 5 (12) h
time of second meloxicam concentration peak post-dose ([1]; fasted steady state conditions): twelve to fourteen
solubility in methanol (methanol): very slightly soluble
solubility in strong acids and bases (strong acids and bases, compared with water): higher solubility
solubility in water (water): practically insoluble
SMILES: Cc1cnc(NC(=O)C2=C(O)c3ccccc3S(=O)(=O)N2C)s1 [Meloxicam, 4-hydroxy-2-methyl-N-(5-methyl-2-thiazolyl)-2-H-1,2-benzothiazine-3-carboxamide 1,1-dioxide]
COX-2/COX-1 inhibition ratio (COX-2): 0.09
